Reference: patent US7253146B2, “Template-fixed peptidomimetics with antimicrobial activity” (Polyphor Ltd, priority 2001, dated 2007)
In brackets after ≈: the same amount, converted by molar mass. Where two headings read alike, the source gives them in different places. *1 amine or outer side, *2 acyl side, *3 side chain or, on linkers, in order; H or OH if unused. Where a SMILES comes first, the peptide text is derived from it. [ ]: non-standard residue; d: D form. The star is where a group is joined. X3 = O=C(N[C@H]1C[C@@H](C(=O)[*:2])N([*:1])C1)C1CCCCC1; X1 = CCCCCCC(=O)N[C@H]1C[C@@H](C(=O)[*:2])N([*:1])C1; Phenylacetyl(4-Ph) = O=C(Cc1ccc(-c2ccccc2)cc1)*; X4 = O=C([C@@H]1C[C@H](N[*:3])CN1[*:1])[*:2]; Diphenylacetyl = O=C(C(c1ccccc1)c1ccccc1)*; Bip = N[C@@H](Cc1ccc(-c2ccccc2)cc1)C(=O)O; Cha = N[C@@H](CC1CCCCC1)C(=O)O

Assays:
[1] = test system: Candida albicans
Method: (§1) Lyophilized peptides were weighed on a Microbalance (Mettler MT5) and dissolved in sterile water containing 0.01% acetic acid Tachyplesin was purchased from Bachem Ltd. (Bubendorf Switzerland).
(§2) The antimicrobial activities of the peptides were determined by the standard NCCLS broth microdilution method (see ref 1, below) examined in sterile 96-wells plates (Nunclon polystyrene microtiter plates) in a total volume of 100 μl. […] 10^6 colony forming units (CFU)/ml for bacteria or 5×10^3 CFU/ml for Candida. Aliquots (50 μl) of the innocula were added to 50 μl of MH broth containing the peptide in serial twofold dilutions. The microorganisms used were Escherichia coli (ATCC 25922), Pseudomnonas aeruginosa (P. aeruginosa) (ATCC 27853), Stahylococcus aureus (ATCC 29213 and ATCC 25923) and Candida albicans. A selected number of peptides were screened for activity against a larger panel of gram-negative strains. These strains were; Escherichia coli ATCC 43827 and clinical isolates of Pseudomonas (P. aeruginosa V07 14482, P. aeruginosa 15288, P. aeruginosa V02 15328 and P. aeruginosa V09 16085) and Acinetobacter (Acinetobacter V04 19905/1, Acinetobacter V12 21143/1 and Acinetobacter V12 21193/1).

[2] = test system: Escherichia coli (ATCC 25922)
Method: as §1, §2

[3] = test system: Staphylococcus aureus ATCC 25923
Method: as §1, §2

[4] = test system: Staphylococcus aureus ATCC 29213
Method: as §1, §2

[5] = test system: human red blood cells (hRBC); assay: Hemolysis of human red blood cells at 100 μg/ml peptide; conditions: 100 μg/ml of peptide, 20% v/v hRBC, 1 hour at 37° C.
Method: Hemolysis of red blood cells is often employed for assessment of toxicity of related compounds such as protegrin or tachyplesin. Values are given as %-lysis of red blood cells observed at a concentration of 100 μg/ml.
The peptides were tested for their hemolytic activity against human red blood cells (hRBC). Fresh hRBC were washed three times with phosphate buffered saline (PBS) by centrifugation for 10 min at 2000×g. Peptides at a concentration of 100 μg/ml were incubated with 20% v/v hRBC for 1 hour at 37° C. The final erythrocyte concentration was appr. 0.9×10^9/ml. A value of 0% resp. 100% cell lysis was determined by incubation of the hRBC in the presence of PBS alone and resp. 0.1% Triton X-100 in H2O. The samples were centrifuged and the supernatant was 20 fold diluted in PBS buffer and the optical density (OD) of the sample at […] was measured. […] Percent hemolysis was calculated as follows: (OD540peptide/OD540H2O)×100%.

[6] = test system: Candida albicans; remark: listed apart in the source
Method: as §2
(§3) Salt sensitivity of the peptides was tested by the microtiter serial dilution assay as described above. Only MH broth was replaced by MH broth containing 1% NaCl.

[7] = test system: Escherichia coli ATCC 25922
Method: as §2, §3

[8] = test system: Pseudomonas putida ATCC 27853
Method: as §2, §3

[9] = test system: Staphylococcus aureus ATCC 25923; remark: listed apart in the source
Method: as §2, §3

[10] = test system: Staphylococcus aureus ATCC 29213; remark: listed apart in the source
Method: as §2, §3

[11] = test system: gram-positive and gram-negative bacteria; conditions: background statement; cited from earlier work
[12] = test system: human red blood cells; conditions: cited from earlier work

Row | Molecule | MIC Candida albicans ([1]; Table 8, Mueller-Hinton broth) [µg/mL] | MIC Escherichia coli ATCC 25922 ([2]; Table 8, Mueller-Hinton broth) [µg/mL] | MIC Staphylococcus aureus ATCC 25923 ([3]; Table 8, Mueller-Hinton broth) [µg/mL] | MIC Staphylococcus aureus ATCC 29213 ([4]; Table 8, Mueller-Hinton broth) [µg/mL] | Hemolyses hRBC (percentage hemolyses) [5] [%] | MIC Candida albicans [1] [µg/mL] | MIC Escherichia coli ATCC 25922 ([2]; ATCC 25922) [µg/mL] | MIC Staphylococcus aureus ATCC 25923 ([3]; ATCC 25923) [µg/mL] | MIC Staphylococcus aureus ATCC 29213 ([4]; ATCC 29213) [µg/mL] | further results
1 | CC(C)C[C@@H]1NC(=O)[C@H](CCCNC(=N)N)NC(=O)[C@H](CC(C)C)NC(=O)[C@@H]2C[C@H](NC(=O)C(c3ccccc3)c3ccccc3)CN2C(=O)[C@H]2CCCN2C(=O)[C@H](C(C)C)NC(=O)[C@H](CCCNC(=N)N)NC(=O)[C@H](Cc2ccc(O)cc2)NC(=O)[C@H](CCCCN)NC(=O)[C@H](Cc2c[nH]c3ccccc23)NC(=O)[C@H](CCCNC(=N)N)NC(=O)[C@H](CCCNC(=N)N)NC(=O)[C@H](CCCCN)NC(=O)[C@H](CCCCN)NC1=O [Example 259] (cyclo(KKRRWKYRV[dP][X4](Diphenylacetyl)LRL)) | 12.5 (≈ 5.99 µM) | 6.2 (≈ 2.97 µM) | 6.2 (≈ 2.97 µM) | 6.2 (≈ 2.97 µM) | 18.0 | – | – | – | – | –
2 | CCCCCCC(=O)N[C@H]1C[C@H]2C(=O)N[C@@H](CC(C)C)C(=O)N[C@@H](CCCNC(=N)N)C(=O)N[C@@H](CC(C)C)C(=O)N[C@@H](CCCCN)C(=O)N[C@@H](CCCCN)C(=O)N[C@@H](CCCNC(=N)N)C(=O)N[C@@H](CCCNC(=N)N)C(=O)N[C@@H](Cc3c[nH]c4ccccc34)C(=O)N[C@@H](CCCCN)C(=O)N[C@@H](Cc3ccc(O)cc3)C(=O)N[C@@H](CCCNC(=N)N)C(=O)N[C@@H](C(C)C)C(=O)N3CCC[C@@H]3C(=O)N2C1 [Example 256] (cyclo(KKRRWKYRV[dP][X1]LRL)) | – | – | – | – | – | 6.2 (≈ 3.09 µM) | 3.1 (≈ 1.55 µM) | 6.2 (≈ 3.09 µM) | 6.2 (≈ 3.09 µM) | Minimal inhibitory concentration (MIC) Candida albicans [6]: 25 µg/mL (≈ 12.5 µM); Minimal inhibitory concentration (MIC) Escherichia coli ATCC 25922 [7]: 6.2 µg/mL (≈ 3.09 µM); Minimal inhibitory concentration (MIC) Pseudomonas putida ATCC 27853 [8]: 6.2 µg/mL (≈ 3.09 µM); Minimal inhibitory concentration (MIC) Staphylococcus aureus ATCC 25923 [9]: 25 µg/mL (≈ 12.5 µM); Minimal inhibitory concentration (MIC) Staphylococcus aureus ATCC 29213 [10]: 25 µg/mL (≈ 12.5 µM)
3 | CC(C)C[C@@H]1NC(=O)[C@H](CCCNC(=N)N)NC(=O)[C@H](CC(C)C)NC(=O)[C@H](CC2CCCCC2)NC(=O)[C@H]2CCCN2C(=O)[C@H](C(C)C)NC(=O)[C@H](CCCNC(=N)N)NC(=O)[C@H](Cc2ccc(O)cc2)NC(=O)[C@H](CCCCN)NC(=O)[C@H](Cc2c[nH]c3ccccc23)NC(=O)[C@H](CCCNC(=N)N)NC(=O)[C@H](CCCNC(=N)N)NC(=O)[C@H](CCCCN)NC(=O)[C@H](CCCCN)NC1=O [Example 254] (cyclo([Cha]LRLKKRRWKYRV[dP])) | – | – | – | – | – | 12.5 (≈ 6.46 µM) | 12.5 (≈ 6.46 µM) | 12.5 (≈ 6.46 µM) | 6.2 (≈ 3.21 µM) | –
4 | CC(C)C[C@H](NC(=O)[C@H](CCCNC(=N)N)NC(=O)CNC(=O)CNC(=O)[C@@H](N)CCCNC(=N)N)C(=O)N[C@H]1CSSC[C@@H](C(=O)N[C@H](C(=O)NCC(=O)N[C@@H](CCCNC(=N)N)C(N)=O)C(C)C)NC(=O)[C@H](C(C)C)NC(=O)[C@@H]2CSSC[C@H](NC(=O)[C@H](Cc3ccc(O)cc3)NC1=O)C(=O)N[C@@H](CCCNC(=N)N)C(=O)N[C@@H](CCCNC(=N)N)C(=O)N[C@@H](CCCNC(=N)N)C(=O)N[C@@H](Cc1ccccc1)C(=O)N2 [protegrin] | – | – | – | – | – | – | – | – | – | antimicrobial activity [11]: potent and similar activity; hemolytic activity [12]: high hemolytic activity
5 | CC(C)C[C@@H]1NC(=O)[C@H](CCCNC(=N)N)NC(=O)[C@H](CC(C)C)NC(=O)[C@@H]2CCCN2C(=O)[C@H]2CCCN2C(=O)[C@H](C(C)C)NC(=O)[C@H](CCCNC(=N)N)NC(=O)[C@H](Cc2ccc(O)cc2)NC(=O)[C@H](CCCCN)NC(=O)[C@H](Cc2ccccc2)NC(=O)[C@H](CCCNC(=N)N)NC(=O)[C@H](CCCNC(=N)N)NC(=O)[C@H](Cc2ccc(O)cc2)NC(=O)[C@H](CCCCN)NC1=O [Example 103] (cyclo(LRLKYRRFKYRV[dP]P)) | – | – | – | – | – | 12.5 (≈ 6.67 µM) | 9.4 (≈ 5.02 µM) | 25 (≈ 13.3 µM) | 25 (≈ 13.3 µM) | –
6 | CC(C)C[C@@H]1NC(=O)[C@H](CCCNC(=N)N)NC(=O)[C@H](CC(C)C)NC(=O)[C@@H]2C[C@H](NC(=O)Cc3ccc(-c4ccccc4)cc3)CN2C(=O)[C@H]2CCCN2C(=O)[C@H](C(C)C)NC(=O)[C@H](CCCNC(=N)N)NC(=O)[C@H](Cc2ccc(O)cc2)NC(=O)[C@H](CCCCN)NC(=O)[C@H](Cc2c[nH]c3ccccc23)NC(=O)[C@H](CCCNC(=N)N)NC(=O)[C@H](CCCNC(=N)N)NC(=O)[C@H](CCCCN)NC(=O)[C@H](CCCCN)NC1=O [Example 258] (cyclo(KKRRWKYRV[dP][X4](Phenylacetyl(4-Ph))LRL)) | 12.5 (≈ 5.99 µM) | 6.2 (≈ 2.97 µM) | 6.2 (≈ 2.97 µM) | 6.2 (≈ 2.97 µM) | 23.6 | – | – | – | – | –
7 | CC(C)C[C@@H]1NC(=O)[C@H](CCCNC(=N)N)NC(=O)[C@H](CC(C)C)NC(=O)[C@@H]2C[C@H](NC(=O)C3CCCCC3)CN2C(=O)[C@H]2CCCN2C(=O)[C@H](C(C)C)NC(=O)[C@H](CCCNC(=N)N)NC(=O)[C@H](Cc2ccc(O)cc2)NC(=O)[C@H](CCCCN)NC(=O)[C@H](Cc2c[nH]c3ccccc23)NC(=O)[C@H](CCCNC(=N)N)NC(=O)[C@H](CCCNC(=N)N)NC(=O)[C@H](CCCCN)NC(=O)[C@H](CCCCN)NC1=O [Example 267] (cyclo(KKRRWKYRV[dP][X3]LRL)) | – | – | – | – | – | 12.5 (≈ 6.24 µM) | 12.5 (≈ 6.24 µM) | 12.5 (≈ 6.24 µM) | 6.2 (≈ 3.09 µM) | –
8 | CC(C)C[C@@H]1NC(=O)[C@H](Cc2c[nH]c3ccccc23)NC(=O)[C@H](CC(C)C)NC(=O)[C@@H]2CCCN2C(=O)[C@H]2CCCN2C(=O)[C@H](C(C)C)NC(=O)[C@H](CCCNC(=N)N)NC(=O)[C@H](Cc2ccc(O)cc2)NC(=O)[C@H](CCCNC(=N)N)NC(=O)[C@H](Cc2ccc(-c3ccccc3)cc2)NC(=O)[C@H](CCCNC(=N)N)NC(=O)[C@H](CCCNC(=N)N)NC(=O)[C@H](CCCCN)NC(=O)[C@H](CCCCN)NC1=O [Example 232] (cyclo(LWLKKRR[Bip]RYRV[dP]P)) | 9.4 (≈ 4.76 µM) | 6.2 (≈ 3.14 µM) | 6.2 (≈ 3.14 µM) | 9.4 (≈ 4.76 µM) | 1.5 | – | – | – | – | –
9 | Gramicidin S | – | – | – | – | – | – | – | – | – | antimicrobial activity [11]: potent antimicrobial activity; hemolytic activity ([12]; background statement): high hemolytic activity
